Assays:
lethal arrhythmia = experiment: Lethal arrhythmia induced by coronary artery occlusion for 5 minutes with reperfusion; format: in vivo, Male Wistar rats
Protocol: Inhibitory effects of Compounds A and B on lethal arrhythmia were determined by the following method:
Male Wistar rats (10-week-old) were anaesthetized with pentobarbital and the chest was opened to expose the heart. Arrhythmia was induced by coronary artery occlusion for 5 minutes with reperfusion of the coronary blood flow. Ventricular arrhythmia observed during occlusion and for 5 minutes after reperfusion was recorded on Mac Lab through polygraph, and the II Lead electro-cardiogram was recorded. Ventricular tachycardia (VT) was counted when premature ventricular complex (PVC) continued more than 5 times. Each of the drugs was dissolved in saline and administered from the femoral vein 5 minutes before coronary artery occlusion.

myocardial infarct size = experiment: Rat acute myocardial infarction model (extension of myocardial infarct size); format: in vivo; conditions: 1 mg/kg, i.v.
Protocol: (1) Inhibitory effects of Compound A on the extension of myocardial infarct size were determined by "Rat acute myocardial infarction model" described in British Journal of Pharmacology, 114, 949-954 (1995).
(2) Inhibitory effects of Compound B [(S)-(-)-7-(2-chlorophenyl)-5-guanidinoimino-4-methyl-5,6,7,8-tetrahydroquinoline] on the extension of myocardial infarct size were determined by "Rat acute myocardial infarction model" described in British Journal of Pharmacology, 114, 949-954 (1995).

[1] = premature ventricular complex, drug in saline via femoral vein 5 minutes before coronary artery occlusion
[2] = ventricular tachycardia, drug in saline via femoral vein 5 minutes before coronary artery occlusion

## Cc1ccnc2c1C(=NNC(=N)N)C[C@@H](c1ccccc1Cl)C2 [Compound B, (S)-(-)-7-(2-chlorophenyl)-5-guanidinoimino-4-methyl-5,6,7,8-tetrahydroquinoline]
Lethal arrhythmia; [1]
  PVC D (duration): 20.9 ± 4.3 s
  PVC N (number of PVCs): 4.8±2.8 time
Lethal arrhythmia; summary in words of the arrhythmia table
  inhibitory effects on lethal arrhythmia: showed inhibitory effects on lethal arrhythmia
Lethal arrhythmia; [2]
  VT D (duration): 7.2 ± 3.6 s
  VT F (frequency): 3.0±0.7 time
Myocardial infarct size; Post-treatment, 1 minute before reperfusion started
  infarct size/area-at-risk: 39±3 %
Myocardial infarct size; Pre-treatment, 5 minutes before coronary occlusion
  infarct size/area-at-risk: 30±5 % t**

Source: patent publication EP0950418A2, “Composition for preventing or treating ischemic disease” (Takeda Chemical Industries, Ltd., priority 1998, dated 1999)
